Data published in patent publication US10144715B2, “Piperazine derivatives as liver X receptor modulators” (priority 2014, dated 2018).
Where two headings read alike, the source gives them in different places.

Tests used:
LXR α LBD protein = LXR α LBD protein (Homo sapiens (Human), UniProt Q13133); test: LXR α radioligand binding assay (SPA, competition with [3H]TO901317); details: read-out: LXRα Binding Ki
[1] = molecular target: Gal4 DNA binding domain fused to the LBD of LXRα in HEK293 cells (Homo sapiens (Human), UniProt Q13133); test: LXR luciferase transcriptional reporter gene assay, agonist mode, LXRα; format: cell-based; details: for EC50: read-out: Cell LXRα EC50
Gal4 DNA binding domain fused to the LBD of LXRα in HEK293 cells, sequence (Q13133 209-447): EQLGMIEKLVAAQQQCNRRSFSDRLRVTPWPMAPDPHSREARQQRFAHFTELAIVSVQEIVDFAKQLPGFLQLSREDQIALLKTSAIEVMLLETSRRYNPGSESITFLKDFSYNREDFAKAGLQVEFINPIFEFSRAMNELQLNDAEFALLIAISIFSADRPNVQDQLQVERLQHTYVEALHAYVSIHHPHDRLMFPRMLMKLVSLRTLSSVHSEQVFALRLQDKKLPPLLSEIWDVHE

[2] = molecular target: Gal4 DNA binding domain fused to the LBD of LXRβ in HEK293 cells (Homo sapiens (Human), UniProt P55055); test: cell-based
Gal4 DNA binding domain fused to the LBD of LXRβ in HEK293 cells, sequence (P55055 222-460 limits assumed): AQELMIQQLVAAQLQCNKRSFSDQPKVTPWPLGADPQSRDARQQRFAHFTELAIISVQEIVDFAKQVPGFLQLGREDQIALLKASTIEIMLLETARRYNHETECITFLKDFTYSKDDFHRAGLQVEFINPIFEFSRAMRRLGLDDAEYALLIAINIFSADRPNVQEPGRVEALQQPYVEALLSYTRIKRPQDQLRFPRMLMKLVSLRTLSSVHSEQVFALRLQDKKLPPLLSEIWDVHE

LXR β LBD protein = LXR β LBD protein (Homo sapiens (Human), UniProt P55055); test: biochemical; format: binding
LXR β LBD protein, sequence (P55055 222-460 limits assumed): as above

[3] = Biological Test Example 2, agonist mode
[4] = Biological Test Example 2, agonist mode, read-out: Cell LXRβ EC50
[5] = Biological Test Example 1, read-out: LXRβ Binding Ki
[6] = agonist mode, read-out: Cell LXRβ EC50

LXR α LBD protein, sequence (Q13133 209-447): as the sequence (Q13133 209-447) above

SMILES | Ki (LXR α LBD protein) | Cell LXRα efficacy [1] | EC50 [1] | Cell LXRβ efficacy [2, 3] | EC50 [2, 4] | Ki (LXR β LBD protein; [5]) | EC50 [1, 3] | EC50 [2] | Ki (LXR β LBD protein) | Cell LXRβ efficacy [2] | Ki (LXR β LBD protein; read-out: LXRβ Binding Ki) | EC50 [2, 6]
CC(C)[C@H]1CC[C@H](CN2CCN(c3ccc(CO)c(S(C)(=O)=O)c3)C[C@@H]2c2ccccc2)CC1 (single isomer, unassigned) [48-77] | 131 nM | 789 (53) % | 789 nM | 23% | 360 nM | 23 nM |  |  |  |  |  | 
CC(C)[C@H]1CC[C@H](CN2CCN(c3ccc(CO)c(S(C)(=O)=O)c3)C[C@H]2c2ccccc2)CC1 (single isomer, unassigned) [48-78] | 30700 nM | 10997 (14) % | 11000 nM | 10% | 8340 nM | 2460 nM |  |  |  |  |  | 
NS(=O)(=O)c1cccc(N2CCN(CC3CCN(CC(F)(F)F)CC3)[C@@H](c3ccccc3)C2)c1 (single isomer, unassigned) [48-81] | 2300 nM | 1964 (37) % |  | 822 (9) % |  | 479 nM | 1960 nM | 822 nM |  |  |  | 
NS(=O)(=O)c1cccc(N2CCN(CC3CCN(CC(F)(F)F)CC3)[C@H](c3ccccc3)C2)c1 (single isomer, unassigned) [48-82] | 7400 nM |  |  |  |  | 2490 nM | > 20000 nM | > 20000 nM |  |  |  | 
CS(=O)(=O)c1cccc(N2CCN(C[C@H]3CC[C@@H](C(F)(F)F)OC3)[C@@H](c3ccc(F)cc3)C2)c1 (single isomer, unassigned) [49-9] | 1210 nM | 1643 (32) % | 1640 nM | 575 (23) % |  |  |  | 575 nM | 150 nM |  |  | 
CS(=O)(=O)c1cccc(N2CCN(C[C@H]3CCC(C(F)(F)F)OC3)[C@@H](c3ccc(F)cc3)C2)c1 (single isomer, unassigned) [49-10] | 438 nM | 1575 (67) % | 1570 nM | 376 (37) % |  |  |  | 376 nM | 53 nM |  |  | 
CS(=O)(=O)c1cccc(N2CCN(C[C@@H]3CCC(C(F)(F)F)OC3)[C@@H](c3ccc(F)cc3)C2)c1 (single isomer, unassigned) [49-12] | 1770 nM | 2637 (51) % | 2640 nM | 522 (25) % |  |  |  | 522 nM | 184 nM |  |  | 
CS(=O)(=O)c1cc(N2CCN(C[C@H]3CC[C@@H](C(F)(F)F)CC3)[C@H](c3ccccc3)C2)ccc1C#N (single isomer, unassigned) [50-5] | 6550 nM | 10000 (7) % | 10000 nM | 11% | 997 nM | 688 nM |  |  |  |  |  | 
CS(=O)(=O)c1cc(N2CCN(C[C@H]3CC[C@@H](C(F)(F)F)CC3)[C@@H](c3ccccc3)C2)ccc1C#N (single isomer, unassigned) [50-6] | 241 nM | 429 (81) % | 429 nM | 53% | 226 nM | 58 nM |  |  |  |  |  | 
CO[C@H]1CC[C@H](CN2CCN(c3ccc(CO)c(S(C)(=O)=O)c3)C[C@@H]2C(C)C)CC1 (single isomer, unassigned) [51-6] | 2800 nM | 1772 (45) % | 1770 nM | 45% | 400 nM | 543 nM |  |  |  |  |  | 
CS(=O)(=O)c1cc(N2CCN(C[C@H]3CC[C@@H](C(F)(F)F)CC3)[C@@H](c3ccccc3Cl)C2)ccc1C(N)=O (single isomer, unassigned) [Cpd No 4-8] | 443 nM | 782 (91) % | 782 nM |  |  |  |  | 545 nM |  | 545 (59) % | 80 nM | 
CS(=O)(=O)c1cc(N2CCN(C[C@H]3CC[C@@H](C(F)(F)F)CC3)[C@H](c3ccccc3Cl)C2)ccc1C(N)=O (single isomer, unassigned) [Cpd No 4-9] | 3650 nM | 15695 (21) % | 15700 nM |  |  |  |  | 5050 nM |  | 5047 (31) % | 926 nM | 
CS(=O)(=O)c1cccc(N2CCN(C[C@H]3CC[C@](C)(O)CC3)[C@@H](c3ccccc3)C2)c1 (single isomer, unassigned) [Cpd No 48-7] | 4530 nM | 4661 (6) % | 4660 nM |  |  |  |  |  |  |  | 465 nM | > 20000 nM
CS(=O)(=O)c1cccc(N2CCN(C[C@H]3CC[C@](C)(O)CC3)[C@H](c3ccccc3)C2)c1 (single isomer, unassigned) [Cpd No 48-8] | > 3330 nM |  | > 20000 nM |  |  |  |  |  |  |  | > 2500 nM | > 20000 nM
CO[C@]1(C(F)(F)F)CC[C@@H](CN2CCN(c3ccc(CO)c(S(C)(=O)=O)c3)C[C@@H]2C(C)C)CC1 (single isomer, unassigned) [Cpd No 48-79] | 5 nM | 6 (58) % |  | 1 (115) % |  | 2 nM | 6 nM | 1 nM |  |  |  | 
